Common to all, as to type: biochemical
For one assay, the target named is T1, c-Met kinase (Homo sapiens, UniProt P08581).
T1 construct: recombinant N-terminal 6×His-tagged c-Met kinase domain construct expressed from baculovirus; 6xHis (N); made in house
Description: c-Met kinase assay (33P incorporation into Poly(Glu-Tyr)). The note with it: 500 nM test compound. Here is the method:
Inhibition of c-Met kinase activity by compounds disclosed herein was quantified by measuring the amount of [^33P] incorporated into the substrate in the presence of a test compound. Briefly, a reaction mixture of 25 μL final volume containing 5 ng of c-Met kinase (obtained by purifying recombinant N-terminal 6×His-tagged c-Met kinase domain construct expressed from baculovirus), 1 μg of the substrate (Poly (Glu-Tyr, 4:1, Sigma)), kinase reaction buffer (20 mM MOPS pH 7.0, 1 mM EDTA, 5% glycerol, 0.01% Brij-35, 0.1% β-mercaptoethanol, 1 mg/mL BSA, 100 μM ATP, 0.1 μCi per well [^33P]-γ-ATP (2,500-3,000 Ci/mmol)), and a test compound (500 nM, diluted with 4% DMSO) or DMSO (as the control) was incubated at 30° C. for 30 minutes. The reaction was stopped by adding 5 μL of 3% phosphoric acid solution. The resultant reaction solution was then harvested onto a filter plate (UniFilter-96 GF/B, PerkinElmer), washed 20 times for 5 min with d.d. H2O, and followed by the addition of 30 μL of MicroScint™-20 Cocktail (PerkinElmer). The plate was then sealed and counted using a TopCount scintillation detector (PerkinElmer). The percentage of inhibition rate of the test compound was calculated by dividing the retained radioactivity of the test sample with the retained radioactivity of the control sample and shown in Table 3.

The next assay has as its target T2, Aurora B kinase (Homo sapiens, UniProt Q96GD4).
T2 construct: purchased Cell signaling
Description: Aurora B kinase assay ([γ-33P]ATP, CHOCKtide substrate). The note with it: for inhibition at 1 µM: 1.0 μM test compound. On the procedure: (§1) Inhibition of Aurora Kinase by the compounds disclosed herein was determined by incubating Aurora kinase, substrate, and a test compound together for a period of time followed by quantifying the resultant phosphorylated product. Specifically, in a well of a 96-well round bottom plate, 25 μL of a reaction mixture containing (1) a test compound disclosed herein (diluted from 9 μM to the desired final concentration), [γ-33P]ATP/ATP mix (10 μM), CHOCKtide (1 μg, Genesis Biotech Inc.), and Aurora-A (1 ng, purchased from Upstate); or (2) a test compound disclosed herein (diluted from 9 μM to the desired final concentration), [γ-33P]ATP/ATP mix (40 μM), CHOCKtide (1 μg, Genesis Biotech Inc.), and Aurora-B (2.5 ng, purchased from Cell signaling); was prepared and incubated at 33° C. for 30 minutes. The reaction was then stopped by adding 5 μL of 3% phosphoric acid. The resultant solution (30 μL) was later harvested by a UniFilter Plate GF/B (PerkinElmer) followed by adding 30 μL of the scintillation cocktail (MicroScint 20, PerkinElmer) to the well. The radioactivity retained on the filter membrane was measured by a luminescence counter (PerkinElmer). IC50 value is defined as the concentration of the test compound which achieves a half-maximal inhibition of the kinase activity.

In another assay the target is T3, Aurora A kinase (Homo sapiens, UniProt O14965).
T3 construct: purchased Upstate
T3 sequence (O14965 1-403): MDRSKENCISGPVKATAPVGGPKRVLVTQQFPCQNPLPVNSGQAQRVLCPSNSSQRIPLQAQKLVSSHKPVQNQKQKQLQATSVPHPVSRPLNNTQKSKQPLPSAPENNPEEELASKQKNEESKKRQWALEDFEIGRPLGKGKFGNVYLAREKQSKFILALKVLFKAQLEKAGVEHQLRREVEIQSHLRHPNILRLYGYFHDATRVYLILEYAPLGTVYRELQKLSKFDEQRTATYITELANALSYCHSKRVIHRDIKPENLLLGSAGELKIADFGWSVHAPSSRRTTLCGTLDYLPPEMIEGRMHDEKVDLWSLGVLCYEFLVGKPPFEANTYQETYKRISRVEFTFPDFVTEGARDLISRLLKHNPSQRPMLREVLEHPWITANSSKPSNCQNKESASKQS
Description: Aurora A kinase assay ([γ-33P]ATP, CHOCKtide substrate). The note with it: for inhibition at 1 µM: 1.0 μM test compound. Here is the method: as §1

T1 sequence (P08581 1078-1345 limits assumed): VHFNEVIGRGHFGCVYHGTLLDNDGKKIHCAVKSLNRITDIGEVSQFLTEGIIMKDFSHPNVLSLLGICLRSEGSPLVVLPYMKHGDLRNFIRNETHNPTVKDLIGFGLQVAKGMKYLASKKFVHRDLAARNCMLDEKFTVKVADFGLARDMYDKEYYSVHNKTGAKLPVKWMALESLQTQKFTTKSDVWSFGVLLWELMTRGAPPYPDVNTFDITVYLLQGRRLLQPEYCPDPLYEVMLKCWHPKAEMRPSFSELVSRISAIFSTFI
T2 sequence (Q96GD4 whole entry): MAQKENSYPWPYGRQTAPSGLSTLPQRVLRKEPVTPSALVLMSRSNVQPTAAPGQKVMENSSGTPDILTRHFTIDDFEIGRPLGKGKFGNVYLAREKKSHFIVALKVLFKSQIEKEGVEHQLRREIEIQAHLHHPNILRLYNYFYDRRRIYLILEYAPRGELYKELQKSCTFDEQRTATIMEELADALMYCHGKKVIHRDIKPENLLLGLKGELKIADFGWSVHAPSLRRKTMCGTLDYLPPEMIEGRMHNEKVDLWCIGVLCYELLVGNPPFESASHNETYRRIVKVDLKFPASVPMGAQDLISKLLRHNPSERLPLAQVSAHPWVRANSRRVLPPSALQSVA

Consider `CC(=O)c1c(C)[nH]c(/C=C2\C(=O)Nc3ccc(NS(=O)(=O)c4ccccc4)cc32)c1CCC(=O)O` [DCB-70200, (Z)-3-(4-acetyl-5-methyl-2-((2-oxo-5-(phenylsulfonamido)indolin-3-ylidene)methyl)-1H-pyrrol-3-yl)propanoic acid], for which, at c-Met kinase, the inhibition at 0.5 µM was found to be 15.2%. Besides, on Aurora B kinase, the IC50 was determined as 870 nM and the inhibition at 1 µM is 57.3%. In addition, at Aurora A kinase, the midpoint of inhibition, the IC50, lay at 60.6 nM and the inhibition at 1 µM was 93.1%.
For the molecule `Nc1ccccc1NC(=O)CCc1c(/C=C2\C(=O)Nc3ccc(NS(=O)(=O)c4ccccc4)cc32)[nH]c2c1C(=O)CCC2` [DCB-70186, (Z)-N-(2-aminophenyl)-3-(4-oxo-2-((2-oxo-5-(phenylsulfonamido)indolin-3-ylidene)methyl)-4,5,6,7-tetrahydro-1H-indol-3-yl)propanamide], the inhibition at 0.5 µM against c-Met kinase is 9.6%. Further, the inhibition at 1 µM against Aurora B kinase amounted to 47.4%; against Aurora A kinase, 66.1%.
For `COc1cccc(S(=O)(=O)Nc2ccc3c(c2)/C(=C/c2[nH]c4c(c2CCC(=O)O)C(=O)CCC4)C(=O)N3)c1` [DCB-70196, (Z)-3-(2-((5-(3-methoxyphenylsulfonamido)-2-oxoindolin-3-ylidene)methyl)-4-oxo-4,5,6,7-tetrahydro-1H-indol-3-yl)propanoic acid], the inhibition at 0.5 µM at c-Met kinase came out at 13.8%. Also, at Aurora B kinase, the IC50 was 673 nM and the inhibition at 1 µM amounted to 55.8%. Besides, at Aurora A kinase, the midpoint of inhibition, the IC50, lay at 61.4 nM and the inhibition at 1 µM stood at 91.8%.
Consider `CC(=O)c1c(C)[nH]c(/C=C2\C(=O)Nc3ccc(S(=O)(=O)N4CCc5ccccc54)cc32)c1CCC(=O)O` [DCB-70188, (Z)-3-(4-acetyl-2-((5-(indolin-1-ylsulfonyl)-2-oxoindolin-3-ylidene)methyl)-5-methyl-1H-pyrrol-3-yl)propanoic acid], for which, on c-Met kinase, the inhibition at 0.5 µM worked out at 51.1%. For the same molecule, on Aurora B kinase, the IC50 amounted to 759 nM and the inhibition at 1 µM was determined as 53.2%. Besides, on Aurora A kinase, the IC50 came out at 31.7 nM and the inhibition at 1 µM stood at 95.5%.
Turning to `CCN(CC)CCNC(=O)CCc1c(/C=C2\C(=O)Nc3ccc(F)cc32)[nH]c(C)c1C(C)=O` [DCB-70213, (Z)-3-(4-acetyl-2-((5-fluoro-2-oxoindolin-3-ylidene)methyl)-5-methyl-1H-pyrrol-3-yl)-N-(2-(diethylamino)ethyl)propanamide], the inhibition at 0.5 µM against c-Met kinase is 15.5%. Moreover, the results for the inhibition at 1 µM against Aurora B kinase and against Aurora A kinase were 16.4% and 1%, respectively.
The like results for `CCCCCCC#Cc1ccc2c(c1)/C(=C/c1[nH]c3c(c1CCC(=O)O)C(=O)CCC3)C(=O)N2` [DCB-70173, (Z)-3-(2-((5-(oct-1-ynyl)-2-oxoindolin-3-ylidene)methyl)-4-oxo-4,5,6,7-tetrahydro-1H-indol-3-yl)propanoic acid] were, in that order, 13.7%, -9.8% and 13.6%.
The like results for `CCCCCCC#Cc1ccc2c(c1)NC(=O)/C2=C\c1[nH]c2c(c1CCC(=O)O)C(=O)CCC2` [DCB-70171, (Z)-3-(2-((6-(oct-1-ynyl)-2-oxoindolin-3-ylidene)methyl)-4-oxo-4,5,6,7-tetrahydro-1H-indol-3-yl)propanoic acid] were, in that order, 18.2%, 17.4% and 73%.
As for `CCOC(=O)CCc1c(/C=C2\C(=O)Nc3ccc(OC)cc32)[nH]c2c1C(=O)CCCC2` [DCB-70154, (Z)-ethyl 3-(2-((5-methoxy-2-oxoindolin-3-ylidene)methyl)-4-oxo-1,4,5,6,7,8-hexahydrocyclohepta[b]pyrrol-3-yl)propanoate], the inhibition at 0.5 µM against c-Met kinase came to 47.9%. Also, the inhibition at 1 µM was 2.8% at Aurora B kinase and -0.3% against Aurora A kinase.
On the same counts, the results for `CCOC(=O)CCc1c(/C=C2\C(=O)Nc3ccc(NC(=O)Nc4ccc(F)cc4F)cc32)[nH]c2c1C(=O)CCC2` [DCB-70183, (Z)-ethyl 3-(2-((5-(3-(2,4-difluorophenyl)ureido)-2-oxoindolin-3-ylidene)methyl)-4-oxo-4,5,6,7-tetrahydro-1H-indol-3-yl)propanoate] are 1.5%, 13.9% and 13.2%.
On the same counts, the results for `CCOC(=O)CCc1c(/C=C2\C(=O)Nc3ccc(NCc4ccc(F)cc4)cc32)[nH]c2c1C(=O)CCC2` [DCB-70176, (Z)-ethyl 3-(2-((5-(4-fluorobenzylamino)-2-oxoindolin-3-ylidene)methyl)-4-oxo-4,5,6,7-tetrahydro-1H-indol-3-yl)propanoate] are 10.1%, 15.2% and 52.3%.
On the same counts, the results for `CCOC(=O)CCc1c(/C=C2\C(=O)Nc3ccc(NS(=O)(=O)c4cccc(OC)c4)cc32)[nH]c2c1C(=O)CCC2` [DCB-70195, (Z)-ethyl 3-(2-((5-(3-methoxyphenylsulfonamido)-2-oxoindolin-3-ylidene)methyl)-4-oxo-4,5,6,7-tetrahydro-1H-indol-3-yl)propanoate] are 15.3%, 47.5% and 73.1%.
As for `COc1ccc2c(c1)/C(=C/c1[nH]c3c(c1CCC(=O)O)C(=O)CCCC3)C(=O)N2` [DCB-70155, (Z)-3-(2-((5-methoxy-2-oxoindolin-3-ylidene)methyl)-4-oxo-1,4,5,6,7,8-hexahydrocyclohepta[b]pyrrol-3-yl)propanoic acid], on c-Met kinase, the inhibition at 0.5 µM was 9.1%. The inhibition at 1 µM against Aurora B kinase was determined as 10.7%; on Aurora A kinase, 75.6%.
On to `O=C(O)CCc1c(/C=C2\C(=O)Nc3ccc(NS(=O)(=O)c4cc(F)cc(F)c4)cc32)[nH]c2c1C(=O)CCC2` [DCB-70190, (Z)-3-(2-((5-(3,5-difluorophenylsulfonamido)-2-oxoindolin-3-ylidene)methyl)-4-oxo-4,5,6,7-tetrahydro-1H-indol-3-yl)propanoic acid], for which the inhibition at 0.5 µM against c-Met kinase turned out to be 10%. Also, the figures for the IC50 against Aurora B kinase and at Aurora A kinase were 246 nM and 31.5 nM, respectively. The inhibition at 1 µM against Aurora B kinase turned out to be 80%; at Aurora A kinase it was 97%.
In the case of `CCOC(=O)CCc1c(/C=C2\C(=O)Nc3ccc(OC)cc32)[nH]c2c1C(=O)CCC2` [DCB-70166, (Z)-ethyl 3-(2-((5-methoxy-2-oxoindolin-3-ylidene)methyl)-4-oxo-4,5,6,7-tetrahydro-1H-indol-3-yl)propanoate], the inhibition at 0.5 µM at c-Met kinase is 21.6%. Also, the inhibition at 1 µM against Aurora B kinase was 13%; against Aurora A kinase it was 48.8%.
On the same counts, the results for `CC(=O)c1c(C)[nH]c(/C=C2\C(=O)Nc3ccc(F)cc32)c1CCC(=O)O` [DCB-70187, (Z)-3-(4-acetyl-2-((5-fluoro-2-oxoindolin-3-ylidene)methyl)-5-methyl-1H-pyrrol-3-yl)propanoic acid] are 8.8%, 17.5% and 62.8%.
Regarding `O=C(O)CCc1c(/C=C2\C(=O)Nc3ccc(NS(=O)(=O)Cc4ccccc4)cc32)[nH]c2c1C(=O)CCC2` [DCB-70198, (Z)-3-(4-oxo-2-((2-oxo-5-(phenylmethylsulfonamido)indolin-3-ylidene)methyl)-4,5,6,7-tetrahydro-1H-indol-3-yl)propanoic acid], the inhibition at 0.5 µM at c-Met kinase stood at 20.2%. In addition, the IC50 against Aurora B kinase worked out at 402 nM; against Aurora A kinase, 62.8 nM. In addition, the inhibition at 1 µM is 69.8% on Aurora B kinase and 96.1% against Aurora A kinase.

As usually defined, the inhibition is the drop in the measured response relative to a control, in per cent. Broadly, the IC50 is the concentration that gives 50% inhibition. High values mean weaker potency, low ones greater potency.

For the origin of these results see US7897602B2, “Indolinone compounds as kinase inhibitors” (Development Center for Biotechnology, priority 2009, dated 2011).
